Laboratory results reported in patent publication US20120214846A1, “HEXAHYDROCYCLOPENTYL[F]INDAZOLE PYRIDYL ETHANOLS AND DERIVATIVES THEREOF AS SELECTIVE GLUCOCORTICOID RECEPTOR MODULATORS” (MERCK SHARP & DOHME CORP, priority 2009, published 2012).

How the values were obtained:
[1] = tested on: female Sprague-Dawley rats, oxazolone (OX) contact dermatitis; assay: In Vivo Inflammation Assay (oxazolone contact dermatitis model); parameters: key to Inflammation Assay Glucose Effect / GL *: +: the glucose level increased compared to vehicle; −: the glucose level decreased compared to vehicle; details: Table 4, literature compounds
Experimental: In Vivo Inflammation Assay
Intact adult (6 month old) female Sprague-Dawley rats are used in the oxazolone (OX) contactdermatitis model. Rats were sensitized on the ventral abdomen with OX on Day 0. On Days 7 and 9, a randomly-selected ear was challenged (same ear each time) with OX; the other was treated with vehicle. Daily treatment begun on Day 7 and continued for 7d with test compounds at different doses and 1.3 mpk 6-methlyprednisolone or 0.1 mpk DEX as positive controls. The thickness of both ears are measured on Days 11 and 14. Necropsy occurred on Day 14. The rat is first weighed, then anesthetized in a CO2 chamber until near death. Approximately 5 ml whole blood is obtained by cardiac puncture. The rat is then examined for certain signs of death and completeness. Tissues are dissected in a highly stylized fashion. Then the following endpoints were evaluated: a) inhibiting ear inflammation induced by oxazalone, b) raising serum insulin, c) reducing serum ACTH, d) reducing spleen weight, e) reducing skin thickness, f) reducing body weight, g) increasing expression of bone-related genes with potential relationship to negative glucocorticoid effects on bone; e) changes in molecular markers that correlate with skin inflammation, skin thinning, muscle atrophy and glucose metabolism in liver. All blood samples were collected between 1330-1530 hours, ˜4-5 hrs after the last compound treatment.
Primary data for this assay are left and right ear thickness. Inter-ear thickness difference (etd) is used for the estimating the level of inflammation and effectiveness of the compounds is determined by their ability to reduce the increase the thickness of the inflamed ear. Back of the rat skin thickness, spleen weight, serum insulin as well as the effects of gcs on the expression of molecular markers in skin inflammation, skin atrophy, muscle atrophy and glucose metabolism in liver are measured. Data are analyzed by anova plus fisher plsd post-hoc test to identify intergroup differences.

[2] = Solubility at pH 2; assay type: physicochemical; details: Table 4, literature compounds

## C[C@]12Cc3cnn(-c4ccc(F)cc4)c3C=C1CCC[C@@H]2[C@@H](O)c1ccc(F)cc1 [Ex. 32 WO 03/086294 A2, reference compound]
[1]; anti-inflammatory effect
  AI*: + (the anti-inflammatory activity was equal to or greater than 40% of the effect generated by the control compound)
[1]; glucose effect
  GL *: +
[2]
  solubility: poor
